Experimental data from ChEMBL document CHEMBL1765084, “Pyrimidine-2,4,6-trione derivatives and their inhibition of mutant SOD1-dependent protein aggregation. Toward a treatment for amyotrophic lateral sclerosis” (J Med Chem, 2011).

Tested on: PC-12
Experiment: Cytoprotection against SOD1 G93A mutant induced cytotoxicity in rat PC12 cells assessed as reduction of protein aggregates by fluorescent assay
Assay type: functional, cell-based

Compound	EC50 [µM]
O=C1CC(=O)N(CCN2CCOCC2)C(=O)N1CCc1ccc(F)cc1	> 32
COc1ccc(C=C2C(=O)N(C3CCCCC3)C(=O)N(C3CCCCC3)C2=O)c(OC)c1	2.58
O=C1CC(=O)N(Cc2ccccc2)C(=O)N1CCc1ccccc1	1.9
O=C1CC(=O)N(CCc2ccccc2)C(=O)N1CCC1=CCCCC1	1.74
Cc1cc(C=C2C(=O)N(CCc3ccccc3)C(=O)N(CCc3ccccc3)C2=O)c(C)n1-c1ccccc1	0.87
COc1ccc(CCN2C(=O)CC(=O)N(CCc3ccc(OC)c(OC)c3)C2=O)cc1OC	11.6
O=C1CC(=O)N(CCOc2ccccc2)C(=O)N1CCOc1ccccc1	3.26
O=C1CC(=O)N(CCc2ccc(Cl)cc2)C(=O)N1CCc1ccccc1	1.19
O=C1CC(=O)N(CCc2ccc(F)cc2)C(=O)N1CCCCc1ccccc1	3.55
CC(C)(C)CCN1C(=O)CC(=O)N(CCC(C)(C)C)C1=O	2.03
O=C1CCC(=O)N(CCc2ccccc2)C(=O)N1CCc1ccccc1	> 32
O=C1CC(=O)N(CCc2ccc(F)cc2)C(=O)N1CCc1ccc(F)cc1	3.45
CCCCN1C(=O)CC(=O)NC1=O	> 32
O=C1CC(=O)N(CCc2cccs2)C(=O)N1CCc1cccs1	2.16
COc1ccc(CCN2C(=O)CC(=O)N(CCc3ccccc3)C2=O)cc1	2.94
Cc1ccccc1C=C1C(=O)N(CCc2ccccc2)C(=O)N(CCc2ccccc2)C1=O	2.23
COc1cc(=O)n(CCc2ccccc2)c(=O)n1CCc1ccccc1	> 32
O=C1CC(=O)N(C2CCCCC2)C(=O)N1	> 32
O=C1CC(=O)N(CCc2cccs2)C(=O)N1CCc1ccccc1	3.39
O=C1CC(=O)N(CCC(c2ccccc2)c2ccccc2)C(=O)N1CCC(c1ccccc1)c1ccccc1	1.39
O=C1CC(=O)N(CCc2cccc(Cl)c2)C(=O)N1CCc1cccc(Cl)c1	2.97
O=C1C(=O)N(CCc2ccccc2)C(=O)N1CCc1ccccc1	> 32
O=C1C(=CC2CCCCC2)C(=O)N(CCc2ccccc2)C(=O)N1CCc1ccccc1	> 32
CC1C(=O)N(CCc2ccccc2)C(=O)N(CCc2ccccc2)C1=O	> 32
O=C1CC(=O)N(CCc2ccc(Cl)cc2)C(=O)N1CCc1ccc(Cl)cc1	3.26
